Here are results for 42 molecules from patent US11452717B2, “Small molecule activators of nicotinamide phosphoribosyltransferase (NAMPT) and uses thereof” (Sanford Burnham Prebys Medical Discovery Institute, priority 2017, dated 2022).

SMILES strings stand for the structures. Where “and” joins values, the source holds several entries; their conditions need not be identical. Identical values can stand only once. Bounds are passed on as bounds.

As a reminder, the EC50 is the midpoint of the concentration-response curve.

The target of the assay is NAMPT enzyme (Homo sapiens (Human), UniProt P43490). Briefly: Enzyme Assay and NMN Detection (NAMPT reaction, fluorescence detection of NMN). The following applies: NAMPT activation, NMN formation. The format is biochemical. On the procedure:
NAMPT reaction was performed in 50 mM HEPES, pH 7.5, containing 5 mM MgCl2, 0.1% Prionex, 0.005% Tween 20, and 1 mM TCEP at room temperature in Greiner 384-well black polypropylene plates. The concentration of substrates and enzymes in the final assay were as follows: ATP (120 uM), nicotinamide (5 uM), phosphoribosylpyrophosphate (6.25 uM), NAMPT enzyme (16 nM), pyrophosphatase (0.04 U/ml) in the final reaction volume 6 uL. Following 2 h incubation the reaction was stopped by addition 2.5 ul 20% acetophenone in dimethyl sulfoxide (DMSO) and 2.5 ul 2 MKOH. Plates were centrifuges and added with 10.5 ul 88% formic acid. The fluorescence (ex380/em460) was measured following another short incubation and 30 min incubation. The increased concentration of NMN was determined from a calibration curve obtained at the time of experiment.

NAMPT enzyme, sequence (P43490 whole entry, species assumed): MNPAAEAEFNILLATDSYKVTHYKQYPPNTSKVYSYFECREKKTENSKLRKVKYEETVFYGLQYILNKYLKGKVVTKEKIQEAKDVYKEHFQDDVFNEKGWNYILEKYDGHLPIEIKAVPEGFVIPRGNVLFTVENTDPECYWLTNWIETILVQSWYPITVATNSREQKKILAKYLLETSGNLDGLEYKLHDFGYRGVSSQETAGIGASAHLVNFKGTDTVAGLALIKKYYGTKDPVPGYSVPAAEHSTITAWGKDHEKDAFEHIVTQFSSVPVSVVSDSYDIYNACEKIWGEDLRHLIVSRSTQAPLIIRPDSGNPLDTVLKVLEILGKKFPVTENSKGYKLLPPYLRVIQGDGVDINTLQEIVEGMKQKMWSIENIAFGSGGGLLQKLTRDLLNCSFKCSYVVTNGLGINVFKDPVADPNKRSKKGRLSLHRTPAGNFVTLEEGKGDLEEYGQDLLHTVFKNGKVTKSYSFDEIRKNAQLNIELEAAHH

On to `O=C(NCc1cn[nH]c1)Nc1ccc(S(=O)(=O)c2ccccc2-c2cccnc2)cc1` [1-(1H-Pyrazol-4-ylmethyl)-3-[4-(2-pyridin-3-yl-benzenesulfonyl)-phenyl]-urea], for which, where the note is “Table B-4”, the EC50 lay within 100 to 2000 nM.

Consider `O=C(NCc1cn[nH]c1)Nc1ccc(S(=O)(=O)c2ccccc2-c2ccncc2)cc1` [1-(1H-Pyrazol-4-ylmethyl)-3-[4-(2-pyridin-4-yl-benzenesulfonyl)-phenyl]-urea], for which, where the note is “Table B-4”, the EC50 lay within 100 to 2000 nM. Take `O=C(NCc1cn[nH]c1)Nc1ccc(S(=O)(=O)c2ccccc2OC(F)(F)F)cc1` [1-(1H-Pyrazol-4-ylmethyl)-3-[4-(2-trifluoromethoxy-benzenesulfonyl)-phenyl]-urea]: the EC50 (Table B-4) is under 100 nM. Under “Table B-4”, `O=C(NCc1cn[nH]c1)Nc1ccc(S(=O)(=O)c2ccccc2C(F)(F)F)cc1` [1-(1H-Pyrazol-4-ylmethyl)-3-[4-(2-trifluoromethyl-benzenesulfonyl)-phenyl]-urea] came in with an EC50 of 100 to 2000 nM. Where the note is “Table B-4”, `O=C(NCc1cn[nH]c1)Nc1ccc(S(=O)(=O)c2cccc(OC(F)(F)F)c2)cc1` [1-(1H-Pyrazol-4-ylmethyl)-3-[4-(3-trifluoromethoxy-benzenesulfonyl)-phenyl]-urea] registered an EC50 of under 100 nM. For the setting “Table B-4”, `Cc1cccc(-c2csc(Nc3ccc(NC(=O)NCc4cn[nH]c4)cc3)n2)c1` [1-(1H-Pyrazol-4-ylmethyl)-3-[4-(4-m-tolyl-thiazol-2-ylamino)-phenyl]-urea] came in with an EC50 of 100 to 2000 nM. `Cc1ccccc1-c1csc(Nc2ccc(NC(=O)NCc3cn[nH]c3)cc2)n1` [1-(1H-Pyrazol-4-ylmethyl)-3-[4-(4-o-tolyl-thiazol-2-ylamino)-phenyl]-urea] showed an EC50 (Table B-4) of 100 to 2000 nM. Under “Table B-4”, `Cc1ccc(-c2csc(Nc3ccc(NC(=O)NCc4cn[nH]c4)cc3)n2)cc1` [1-(1H-Pyrazol-4-ylmethyl)-3-[4-(4-p-tolyl-thiazol-2-ylamino)-phenyl]-urea] came in with an EC50 of 2000 to 5000 nM. For the setting “Table B-4”, `O=C(NCc1cn[nH]c1)Nc1ccc(S(=O)(=O)c2ccc(OC(F)(F)F)cc2)cc1` [1-(1H-Pyrazol-4-ylmethyl)-3-[4-(4-trifluoromethoxy-benzenesulfonyl)-phenyl]-urea] came in with an EC50 of 100 to 2000 nM. With `O=C(NCc1cn[nH]c1)Nc1ccc(S(=O)(=O)c2cccnc2)cc1` [1-(1H-Pyrazol-4-ylmethyl)-3-[4-(pyridine-3-sulfonyl)-phenyl]-urea], the EC50 (Table B-4) lay in the range of 100 to 2000 nM. Still for that read-out and setting: next, `O=C(NCc1cn[nH]c1)Nc1ccc(S(=O)(=O)c2ncccn2)cc1` [1-(1H-Pyrazol-4-ylmethyl)-3-[4-(pyrimidine-2-sulfonyl)-phenyl]-urea]: 2000 to 5000 nM. Still for that read-out and setting: the figure for `O=C(NCc1cn[nH]c1)Nc1ccc(S(=O)(=O)c2nccs2)cc1` [1-(1H-Pyrazol-4-ylmethyl)-3-[4-(thiazole-2-sulfonyl)-phenyl]-urea] is 2000 to 5000 nM and 100 to 2000 nM. `Cc1ccccc1S(=O)(=O)c1ccc(NC(=O)NCc2cn[nH]c2)cc1` [1-(1H-Pyrazol-4-ylmethyl)-3-[4-(toluene-2-sulfonyl)-phenyl]-urea]: the EC50 (Table B-4) is under 100 nM. On the same count and under the same terms, next, `Cc1cccc(S(=O)(=O)c2ccc(NC(=O)NCc3cn[nH]c3)cc2)c1` [1-(1H-Pyrazol-4-ylmethyl)-3-[4-(toluene-3-sulfonyl)-phenyl]-urea]: 100 to 2000 nM. Where the note is “Table B-4”, `Cc1ccc(S(=O)(=O)c2ccc(NC(=O)NCc3cn[nH]c3)cc2)cc1` [1-(1H-Pyrazol-4-ylmethyl)-3-[4-(toluene-4-sulfonyl)-phenyl]-urea] registered an EC50 of 100 to 2000 nM. In turn, `O=C(NCc1cn[nH]c1)Nc1ccc(S(=O)(=O)C2CCN(C3CCOCC3)CC2)cc1` [1-(1H-Pyrazol-4-ylmethyl)-3-{4-[1-(tetrahydro-pyran-4-yl)-piperidine-4-sulfonyl]-phenyl}-urea] gave an EC50 (Table B-4) of 100 to 2000 nM and an EC50 (Table B-6) of 100 to 2000 nM. For the setting “Table B-5”, `O=C(NCc1cnco1)Nc1ccc(NS(=O)(=O)Cc2ccccc2Cl)cc1` [1-(2-Chlorophenyl)-N-(4-(3-(oxazol-5-ylmethyl)ureido)phenyl)methanesulfonamide] registered an EC50 of under 100 nM. `O=C(NCc1ccncc1)Nc1ccc(NS(=O)(=O)Cc2ccccc2Cl)cc1` [1-(2-chlorophenyl)-N-(4-(3-(pyridin-4-ylmethyl)ureido)phenyl)methanesulfonamide] had an EC50 (Table B-2) of under 100 nM. For `O=C(NCc1cnco1)Nc1ccc(NS(=O)(=O)Cc2ccc(Cl)c(Cl)c2)cc1` [1-(3,4-Dichlorophenyl)-N-(4-(3-(oxazol-5-ylmethyl)ureido)phenyl)methanesulfonamide], the EC50 (Table B-5) was under 100 nM.

For the molecule `O=C(NCc1ccncc1)Nc1cccc(S(=O)(=O)N2CCOCC2)c1` [1-(3-(morpholinosulfonyl)phenyl)-3-(pyridin-4-ylmethyl)urea], under “Table B-2”, the EC50 was over 20000 nM. Turning to `O=C(NCc1cnco1)Nc1ccc(NS(=O)(=O)Cc2cccc(Cl)c2)cc1` [1-(3-Chlorophenyl)-N-(4-(3-(oxazol-5-ylmethyl)ureido)phenyl)methanesulfonamide], the EC50 (Table B-5) is under 100 nM.

For `N#Cc1cc(NC(=O)NCc2ccncc2)ccc1S(=O)(=O)c1cc(F)cc(F)c1` [1-(3-Cyano-4-((3,5-difluorophenyl)sulfonyl)phenyl)-3-(pyridin-4-ylmethyl)urea], the EC50 (Table B-6) was 100 to 2000 nM.

For `O=C(NCc1ccncc1)Nc1ccc(NS(=O)(=O)Cc2cccc(Cl)c2)cc1` [1-(3-chlorophenyl)-N-(4-(3-(pyridin-4-ylmethyl)ureido)phenyl)methanesulfonamide], under “Table B-2”, the EC50 is under 100 nM.

In the case of `Cc1cccc2c1c(-c1ccc(NC(=O)NCc3ccncc3)cc1)nn2C` [1-(4-(1,4-Dimethyl-1H-indazol-3-yl)phenyl)-3-(pyridin-4-ylmethyl)urea], the EC50 (Table B-6) lay in the range of 100 to 2000 nM. Consider `Cc1ccc2c(c1)c(-c1ccc(NC(=O)NCc3cnco3)cc1)nn2C` [1-(4-(1,5-Dimethyl-1H-indazol-3-yl)phenyl)-3-(oxazol-5-ylmethyl)urea], for which the EC50 (Table B-5) lay in the range of 5000 to 20000 nM. For `Cc1ccc2c(c1)c(-c1ccc(NC(=O)NCc3ccncc3)cc1)nn2C` [1-(4-(1,5-Dimethyl-1H-indazol-3-yl)phenyl)-3-(pyridin-4-ylmethyl)urea], where the note is “Table B-6”, the 50% effective concentration (EC50) fell in the range of 100 to 2000 nM.

The molecule `Cc1cccc2c(-c3ccc(NC(=O)NCc4cnco4)cc3)nn(C)c12` [1-(4-(1,7-Dimethyl-1H-indazol-3-yl)phenyl)-3-(oxazol-5-ylmethyl)urea] gave an EC50 (Table B-5) of 2000 to 5000 nM. `Cc1cccc2c(-c3ccc(NC(=O)NCc4ccncc4)cc3)nn(C)c12` [1-(4-(1,7-Dimethyl-1H-indazol-3-yl)phenyl)-3-(pyridin-4-ylmethyl)urea] came in with an EC50 (Table B-6) of 100 to 2000 nM.

In the case of `Cn1nc(-c2ccc(NC(=O)NCc3ccncc3)cc2)c2ccncc21` [1-(4-(1-Methyl-1H-pyrazolo[3,4-c]pyridin-3-yl)phenyl)-3-(pyridin-4-ylmethyl)urea], where the note is “Table B-6”, the EC50 is 100 to 2000 nM.

Molecule `CN1CCN(C(=O)c2ccc(NC(=O)NCc3ccncc3)cc2)CC1` [1-(4-(4-Methylpiperazine-1-carbonyl)phenyl)-3-(pyridin-4-ylmethyl)urea] yielded an EC50 (Table B-2) of 5000 to 20000 nM.

`O=C(NCc1cnco1)Nc1ccc(-c2ncc(Cc3ccccc3)s2)cc1` [1-(4-(5-Benzylthiazol-2-yl)phenyl)-3-(oxazol-5-ylmethyl)urea]: the EC50 (Table B-5) lay within 5000 to 20000 nM.

In turn, `O=C(NCc1ccncc1)Nc1ccc(-c2ncc(Cc3ccccc3)s2)cc1` [1-(4-(5-Benzylthiazol-2-yl)phenyl)-3-(pyridin-4-ylmethyl)urea] displayed an EC50 (Table B-6) of 5000 to 20000 nM.

Where the note is “Table B-5”, `Cn1nc(-c2ccc(NC(=O)NCc3cnco3)cc2)c2cc(Cl)ccc21` [1-(4-(5-Chloro-1-methyl-1H-indazol-3-yl)phenyl)-3-(oxazol-5-ylmethyl)urea] showed an EC50 of 100 to 2000 nM. For the molecule `Cn1nc(-c2ccc(NC(=O)NCc3ccncc3)cc2)c2cc(Cl)ccc21` [1-(4-(5-Chloro-1-methyl-1H-indazol-3-yl)phenyl)-3-(pyridin-4-ylmethyl)urea], the EC50 (Table B-6) was in the range of 2000 to 5000 nM. On to `O=C(NCc1ccncc1)Nc1ccc(C(=O)N2CC3CCC(C2)O3)cc1` [1-(4-(8-Oxa-3-azabicyclo[3.2.1]octane-3-carbonyl)phenyl)-3-(pyridin-4-ylmethyl)urea], for which the EC50 (Table B-2) fell in the range of 100 to 2000 nM. The molecule `O=C(NCc1cnco1)Nc1ccc(S(=O)(=O)c2cn[nH]c2)cc1` [1-(4-((1H-pyrazol-4-yl)sulfonyl)phenyl)-3-(oxazol-5-ylmethyl)urea] showed an EC50 (Table B-5) of 100 to 2000 nM. Regarding `O=C(NCc1ccncc1)Nc1ccc(S(=O)(=O)c2cn[nH]c2)cc1` [1-(4-((1H-pyrazol-4-yl)sulfonyl)phenyl)-3-(pyridin-4-ylmethyl)urea], for the setting “Table B-6”, the EC50 fell in the range of 100 to 2000 nM. The molecule `COc1ccc(-c2ccccc2S(=O)(=O)c2ccc(NC(=O)NCc3ccncc3)cc2)cn1` [1-(4-((2-(6-Methoxypyridin-3-yl)phenyl)sulfonyl)phenyl)-3-(pyridin-4-ylmethyl)urea] displayed an EC50 (Table B-6) of 5000 to 20000 nM. With `O=C(NCc1cnco1)Nc1ccc(S(=O)(=O)c2ccccc2F)cc1` [1-(4-((2-Fluorophenyl)sulfonyl)phenyl)-3-(oxazol-5-ylmethyl)urea], the EC50 (Table B-5) was 100 to 2000 nM. For the molecule `O=C(NCc1ccncc1)Nc1ccc(S(=O)(=O)c2ccccc2F)cc1` [1-(4-((2-Fluorophenyl)sulfonyl)phenyl)-3-(pyridin-4-ylmethyl)urea], the EC50 (Table B-6) fell in the range of 100 to 2000 nM. In turn, `COc1ccccc1S(=O)(=O)c1ccc(NC(=O)NCc2cnco2)cc1` [1-(4-((2-Methoxyphenyl)sulfonyl)phenyl)-3-(oxazol-5-ylmethyl)urea] yielded an EC50 (Table B-5) of 100 to 2000 nM. Under “Table B-6”, `O=C(NCc1ccncc1)Nc1ccc(S(=O)(=O)c2ccccc2-c2ccccc2Cl)cc1` [1-(4-((2′-Chloro-[1,l′-biphenyl]-2-yl)sulfonyl)phenyl)-3-(pyridin-4-ylmethyl)urea] registered an EC50 of 100 to 2000 nM.
